Test results: patent publication US10800791B2, “Triazole ACC inhibitors and uses thereof” (Gilead Apollo, LLC, priority 2015, dated 2020)
Converted amounts (≈) assume the structure as drawn. Read-outs that look alike come from different tables or passages of the source.

Legend:
C. albicans = test: Antifungal Activity Assay (broth microtiter MIC), C. albicans; assay type: cell-based, Candida albicans; conditions: Candida albicans, ATCC90028, 48 h
Outline: (§1)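 CLSI M27-A3 microdilution; RPMI 1640+MOPS; 2.5×10^3 CFU/mL final inoculum; cultures from Sabouraud dextrose agar, 35° C overnight; compound working solution 128 μg/mL from 1 mg/mL DMSO stock; visual MIC at 48 h vs growth control.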

C. krusei = test: Antifungal Activity Assay (broth microtiter MIC), C. krusei; assay type: cell-based, Candida krusei; conditions: Pichia kudriavzevii, ATCC6258, 48 h
Outline: as §1

Botrtyis cinerea (Bc) = test: Growth inhibition assay of fungal pathogens, Bc; assay type: cell-based; conditions: 48 h
Outline: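 Spores diluted in 17% V8 liquid media and incubated with compound at final 50, 10, 2 ppm or 2, 0.4, 0.08 ppm (2% DMSO). OD600 plus visual ratings at 24 and 48 hours, blank-subtracted; percent growth inhibition from 48 h readings relative to 2% DMSO control.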

[1] = Table 3a, ATCC 90028, 3 replicates, MIC recorded at 48 h, read-out: MIC, C. albicans ATCC 90028
[2] = Table 3b (additional results), ATCC 90028, 3 replicates, MIC recorded at 48 h, read-out: MIC, C. albicans ATCC 90028
[3] = Table 3a, ATCC 6258, 3 replicates, MIC recorded at 48 h, read-out: MIC, C. krusei ATCC 6258
[4] = Table 3b (additional results), ATCC 6258, 3 replicates, MIC recorded at 48 h, read-out: MIC, C. krusei ATCC 6258
[5] = Botrtyis cinerea, growth inhibition at 48 hours vs 2% DMSO control, read-out: Concentration at 90% Inhibition Bc
[6] = Botrtyis cinerea, growth inhibition vs 2% DMSO control at 48 hours, read-out: Concentration at 90% Inhibition Bc
[7] = read-out: MIC, C. albicans ATCC 90028, Table 3a, 3 replicates, MIC recorded at 48 h
[8] = read-out: MIC, C. albicans ATCC 90028, Table 3b (additional results), 3 replicates, MIC recorded at 48 h
[9] = read-out: MIC, C. krusei ATCC 6258, Table 3a, 3 replicates, MIC recorded at 48 h
[10] = read-out: MIC, C. krusei ATCC 6258, Table 3b (additional results), 3 replicates, MIC recorded at 48 h
[11] = read-out: Concentration at 90% Inhibition Bc, Botrtyis cinerea, growth inhibition at 48 hours vs 2% DMSO control
[12] = read-out: Concentration at 90% Inhibition Bc, Botrtyis cinerea, growth inhibition vs 2% DMSO control at 48 hours

MIC (C. albicans; [1]) [µg/mL] | MIC (C. albicans; [2]) [µg/mL] | MIC (C. krusei; [3]) [µg/mL] | MIC (C. krusei; [4]) [µg/mL] | Structure (SMILES) | IC90 (Botrtyis cinerea (Bc); [5]) [µg/mL] | IC90 (Botrtyis cinerea (Bc); [6]) [µg/mL] | MIC (C. albicans; [7]) [µg/mL] | MIC (C. albicans; [8]) [µg/mL] | MIC (C. krusei; [9]) [µg/mL] | MIC (C. krusei; [10]) [µg/mL] | IC90 (Botrtyis cinerea (Bc); [11]) [µg/mL] | IC90 (Botrtyis cinerea (Bc); [12]) [µg/mL]
2.1 to 4 (≈ 3.27 to 6.22 µM) | 1.01 to 2 (≈ 1.57 to 3.11 µM) | 2.1 to 4 (≈ 3.27 to 6.22 µM) | 1.01 to 2 (≈ 1.57 to 3.11 µM) | COc1ccc(F)cc1[C@H](Cn1c(=O)n(C(C)(C)C(=O)N2CC(O)C2)c(=O)c2c(C)c(-n3nccn3)sc21)OC1CCOCC1 [Compound I-26, (R)-1-(2-(5-fluoro-2-methoxyphenyl)-2-((tetrahydro-2H-pyran-4-yl)oxy)ethyl)-3-(1-(3-hydroxyazetidin-1-yl)-2-methyl-1-oxopropan-2-yl)-5-methyl-6-(2H-1,2,3-triazol-2-yl)thieno[2,3-d]pyrimidine-2,4(1H,3H)-dione] | 2 (≈ 3.11 µM) | 2 (≈ 3.11 µM) |  |  |  |  |  | 
 |  |  |  | COc1ccc(F)cc1[C@H](Cn1c(=O)n(C(C)(C)C(=O)NC2CCCCC2)c(=O)c2c(C)c(-n3nccn3)sc21)OC1CCOCC1 [Compound I-28, (R)—N-cyclohexyl-2-(1-(2-(5-fluoro-2-methoxyphenyl)-2-((tetrahydro-2H-pyran-4-yl)oxy)ethyl)-5-methyl-2,4-dioxo-6-(2H-1,2,3-triazol-2-yl)-1,4-dihydrothieno[2,3-d]pyrimidin-3(2H)-yl)-2-methylpropanamide] |  |  | 0.25 to 1 (≈ 0.374 to 1.5 µM) | 0.25 to 1 (≈ 0.374 to 1.5 µM) | 0.06 to 0.24 (≈ 0.0897 to 0.359 µM) | 0.06 to 0.249 (≈ 0.0897 to 0.372 µM) | 0.4 (≈ 0.598 µM) | 0.4 (≈ 0.598 µM)
0.25 to 1 (≈ 0.418 to 1.67 µM) | 0.25 to 1 (≈ 0.418 to 1.67 µM) | 0.25 to 1 (≈ 0.418 to 1.67 µM) | 0.25 to 1 (≈ 0.418 to 1.67 µM) | COc1ccc(F)cc1[C@H](Cn1c(=O)n(C(C)(C)C(N)=O)c(=O)c2c(C)c(-n3nccn3)sc21)OC1CCC(=O)CC1 [Compound I-31, (R)-2-(1-(2-(5-fluoro-2-methoxyphenyl)-2-((4-oxocyclo-hexyl)oxy)ethyl)-5-methyl-2,4-dioxo-6-(2H-1,2,3-triazol-2-yl)-1,4-dihydrothieno[2,3-d]pyrimidin-3(2H)-yl)-2-methylpropanamide] | 0.4 (≈ 0.668 µM) | 0.4 (≈ 0.668 µM) |  |  |  |  |  | 
 |  |  |  | COc1ccc(F)cc1[C@H](Cn1c(=O)n(C(C)(C)C(=O)NC(C)C)c(=O)c2c(C)c(-n3nccn3)sc21)OC1CCC(=O)CC1 [Compound I-32, (R)-2-(1-(2-(5-fluoro-2-methoxyphenyl)-2-((4-oxocyclo-hexyl)oxy)ethyl)-5-methyl-2,4-dioxo-6-(2H-1,2,3-triazol-2-yl)-1,4-dihydro-thieno[2,3-d]pyrimidin-3(2H)-yl)-N-isopropyl-2-methylpropanamide] |  |  | 0.06 to 0.24 (≈ 0.0936 to 0.375 µM) | 0.06 to 0.249 (≈ 0.0936 to 0.389 µM) | 0.06 to 0.24 (≈ 0.0936 to 0.375 µM) | 0.06 to 0.249 (≈ 0.0936 to 0.389 µM) | 0.08 (≈ 0.125 µM) | 0.08 (≈ 0.125 µM)
0.25 to 1 (≈ 0.383 to 1.53 µM) | 0.25 to 1 (≈ 0.383 to 1.53 µM) | 0.25 to 1 (≈ 0.383 to 1.53 µM) | 0.25 to 1 (≈ 0.383 to 1.53 µM) | COc1ccc(F)cc1[C@H](Cn1c(=O)n(C(C)(C)C(=O)N2CCCC2)c(=O)c2c(C)c(-n3nccn3)sc21)OC1CCC(=O)CC1 [Compound I-33, (R)-1-(2-(5-fluoro-2-methoxyphenyl)-2-((4-oxocyclo-hexyl)oxy)ethyl)-5-methyl-3-(2-methyl-1-oxo-1-(pyrrolidin-1-yl)propan-2-yl)-6-(2H-1,2,3-triazol-2-yl)thieno[2,3-d]pyrimidine-2,4(1H,3H)-dione] | 0.4 (≈ 0.613 µM) | 0.4 (≈ 0.613 µM) |  |  |  |  |  | 

Structure (SMILES) | MIC (C. albicans; [1]) [µg/mL] | MIC (C. albicans; [2]) [µg/mL] | MIC (C. krusei; [3]) [µg/mL] | MIC (C. krusei; [4]) [µg/mL] | IC90 (Botrtyis cinerea (Bc); [5]) [µg/mL] | IC90 (Botrtyis cinerea (Bc); [6]) [µg/mL] | MIC (C. albicans; [7]) [µg/mL] | MIC (C. albicans; [8]) [µg/mL] | MIC (C. krusei; [9]) [µg/mL] | MIC (C. krusei; [10]) [µg/mL] | IC90 (Botrtyis cinerea (Bc); [11]) [µg/mL] | IC90 (Botrtyis cinerea (Bc); [12]) [µg/mL]
COc1ccc(F)cc1[C@H](Cn1c(=O)n(C(C)(C)C(=O)NC2CCC2)c(=O)c2c(C)c(-n3nccn3)sc21)OC1CCOCC1 [Compound I-27, (R)—N-cyclobutyl-2-(1-(2-(5-fluoro-2-methoxyphenyl)-2-((tetrahydro-2H-pyran-4-yl)oxy)ethyl)-5-methyl-2,4-dioxo-6-(2H-1,2,3-triazol-2-yl)-1,4-dihydrothieno[2,3-d]pyrimidin-3(2H)-yl)-2-methylpropanamide] | 0.25 to 1 (≈ 0.39 to 1.56 µM) | 0.25 to 1 (≈ 0.39 to 1.56 µM) | 0.06 to 0.24 (≈ 0.0936 to 0.375 µM) | 0.06 to 0.249 (≈ 0.0936 to 0.389 µM) | 0.4 (≈ 0.624 µM) | 0.4 (≈ 0.624 µM) |  |  |  |  |  | 
COc1ccc(F)cc1[C@H](Cn1c(=O)n(C(C)(C)C(=O)NCC(C)C)c(=O)c2c(C)c(-n3nccn3)sc21)OC1CCOCC1 [Compound I-29, (R)-2-(1-(2-(5-fluoro-2-methoxyphenyl)-2-((tetrahydro-2H-pyran-4-yl)oxy)ethyl)-5-methyl-2,4-dioxo-6-(2H-1,2,3-triazol-2-yl)-1,4-dihydro-thieno[2,3-d]pyrimidin-3(2H)-yl)-N-isobutyl-2-methylpropanamide] | 0.25 to 1 (≈ 0.389 to 1.56 µM) | 0.06 to 0.249 (≈ 0.0933 to 0.387 µM) | 0.06 to 0.24 (≈ 0.0933 to 0.373 µM) | 0.06 to 0.249 (≈ 0.0933 to 0.387 µM) | 0.4 (≈ 0.622 µM) | 0.4 (≈ 0.622 µM) |  |  |  |  |  | 
